According to the supplement of paper PMC10307832:

Key:
Assay in all cases: relative viability (nuclei count vs DMSO), 5 days (fraction); higher = more cells survive
[1] = compound: C1CC(C2=C(C1)C3=C(N2)C=CC(=C3)Cl)C(=O)N [Selisistat] + CC(=O)c1c(C)c2cnc(Nc3ccc(N4CCNCC4)cn3)nc2n(C2CCCC2)c1=O [Palbociclib] (partner 0.5 µM)
In short: (§1)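 Five library-drug doses in √10 steps were combined with a fixed anchor-drug dose, or a single drug was given alone, by pin tool to lung cancer cell lines in 1536-well plates the day after seeding. Nuclei were stained and counted after 5 days. Relative viability is the nuclei count in treated wells over that in vehicle wells, taken as the median of duplicate plates.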

[2] = compound: c1ccc2c(CCNc3ccc(Nc4ccncc4)cc3)c[nH]c2c1 [Serdemetan] + Nc1nc2[nH]cc(CCc3ccc(C(=O)N[C@@H](CCC(=O)O)C(=O)O)cc3)c2c(=O)[nH]1 [Pemetrexed] (partner 0.2 µM)
In short: as §1

[3] = compound: C1CC(C2=C(C1)C3=C(N2)C=CC(=C3)Cl)C(=O)N [Selisistat] + Cc1nc(NC(=O)N2CCC[C@H]2C(N)=O)sc1-c1ccnc(C(C)(C)C(F)(F)F)c1 [Alpelisib] (partner 2 µM)
In short: as §1

[4] = compound: c1ccc2c(CCNc3ccc(Nc4ccncc4)cc3)c[nH]c2c1 [Serdemetan] + CS(=O)(=O)N1CCN(Cc2cc3nc(-c4cccc5[nH]ncc45)nc(N4CCOCC4)c3s2)CC1 [Pictilisib] (partner 1 µM)
In short: as §1

Cell Line	relative viability ([1]; first compound 0.4 µM)	relative viability ([1]; first compound 1.265 µM)	relative viability ([1]; first compound 4 µM)	relative viability ([1]; first compound 12.65 µM)	relative viability ([1]; first compound 40 µM)	relative viability ([2]; first compound 0.04 µM)	relative viability ([2]; first compound 0.1265 µM)	relative viability ([2]; first compound 0.4 µM)	relative viability ([2]; first compound 1.265 µM)	relative viability ([2]; first compound 4 µM)	relative viability ([3]; first compound 0.4 µM)	relative viability ([3]; first compound 1.265 µM)	relative viability ([3]; first compound 4 µM)	relative viability ([3]; first compound 12.65 µM)	relative viability ([3]; first compound 40 µM)	relative viability ([4]; first compound 0.04 µM)	relative viability ([4]; first compound 0.1265 µM)	relative viability ([4]; first compound 0.4 µM)	relative viability ([4]; first compound 1.265 µM)	relative viability ([4]; first compound 4 µM)
NCI-H2342	0.554	0.753	0.46	0.538	0.611	0.789	0.752	0.835	0.516	0.641	–	–	–	–	–	–	–	–	–	–
SK-MES-1	0.34	0.347	0.309	0.314	0.378	0.938	0.89	0.824	0.772	0.841	1.01	0.951	0.836	0.838	0.896	0.333	0.378	0.377	0.363	0.205
HCC-366	0.414	0.447	0.37	0.355	0.377	0.177	0.135	0.15	0.0885	0.055	0.341	0.337	0.268	0.397	0.354	0.204	0.151	0.0985	0.141	0.168
201T	0.369	0.338	0.32	0.333	0.365	0.306	0.287	0.29	0.332	0.353	1.04	0.986	0.981	1.03	1.02	0.707	0.712	0.67	0.655	0.664
HCC-827	0.483	0.475	0.534	0.439	0.527	0.218	0.191	–	0.2	0.227	0.98	0.976	0.919	0.999	0.978	0.921	0.712	–	0.575	0.824
NCI-H647	0.415	0.331	0.398	0.433	0.396	0.164	0.172	0.175	0.179	0.137	1.1	1.03	–	1.09	1.31	0.359	0.313	0.499	0.392	0.445
NCI-H2023	0.34	0.354	0.401	0.378	0.353	0.213	0.223	0.227	0.206	0.217	0.594	0.52	0.608	0.59	0.592	0.219	0.28	0.19	0.182	0.189
NCI-H520	0.224	0.208	0.198	0.274	0.236	0.712	0.68	0.753	0.674	0.542	0.762	0.736	1.07	0.957	0.73	0.283	0.327	0.321	0.269	0.272
RERF-LC-KJ	1.15	1.02	0.995	0.909	0.952	0.455	0.456	0.452	0.475	0.49	0.853	0.754	0.632	0.789	0.73	0.433	0.561	0.569	0.475	0.388
A-427	0.57	0.485	–	0.57	0.554	0.958	0.927	1.04	0.698	0.854	1.08	1.09	1.02	1.14	1.12	0.787	0.704	0.607	0.49	0.599
NCI-H441	0.24	0.186	0.136	0.217	0.239	0.262	0.293	0.257	0.202	0.225	0.804	0.64	–	0.691	0.707	0.486	0.481	0.418	0.277	0.384
NCI-H1703	–	–	–	–	–	–	–	–	–	–	0.28	0.385	0.265	0.336	0.397	0.213	0.278	0.3	0.271	0.232
NCI-H1792	0.659	0.606	–	0.581	0.596	0.74	0.88	0.761	0.38	0.404	0.696	0.603	–	0.685	0.693	0.278	0.274	0.283	0.242	0.145
Calu-6	–	–	–	–	–	–	–	–	–	–	1.02	0.896	1.01	0.841	0.873	0.912	0.888	0.888	0.647	0.621
SK-LU-1	0.394	0.361	0.367	0.43	0.411	0.941	0.895	1.07	0.908	0.722	1.02	1.05	1.33	1.03	0.846	0.572	0.47	0.713	0.494	0.407
PC-3 [JPC-3]	0.608	0.636	–	0.571	0.529	1.12	1.07	0.991	0.829	1.05	1.08	0.973	1.05	1.02	1.05	0.748	0.693	–	0.705	0.735
EMC-BAC-2	0.523	0.525	0.586	0.282	0.319	0.457	0.446	0.437	0.346	0.4	0.693	0.708	0.674	0.697	0.777	0.564	0.556	0.507	0.508	0.502
LK-2	0.797	0.686	0.766	0.694	0.566	0.261	0.206	0.225	0.265	0.241	1.05	0.968	0.981	0.989	1.01	0.479	0.578	0.687	0.362	0.301
